Measured values as given in PubChem BioAssay AID192 (DTP/NCI, 2004).
Values joined by “and” are separate entries in the source; they are usually repeats but may differ in a detail not shown here. Identical values can stand only once. Inconclusive results and toxic doses are left out. Rule for the calls: active = survival T/C of 150% or more; inactive = T/C below 125% in these data.

Tested on: BDF1 mice, B16 melanoma ip, median survival T/C
Assay: NCI In Vivo Anticancer Drug Screen. Data for tumor model B16 Melanoma (intraperitoneal) in B6D2F1 (BDF1) mice
Settings: endpoint: median survival time, higher = longer survival
Procedure: The antitumor activity of compounds was measured in mice bearing transplantable tumors. Survival or tumor size were measured and the results are expressed as the measurement made in the treated group (T) divided by the measurement made in the vehicle treated control group (C). The tumor model used in this assay is B16 Melanoma (intraperitoneal) in B6D2F1 (BDF1) mice

[1] = dose: 12.5 mg/kg/injection, schedule: Q01DX009 (ip), vehicle: water
[2] = dose: 25.0 mg/kg/injection, schedule: Q01DX009 (ip), vehicle: water
[3] = dose: 50.0 mg/kg/injection, schedule: Q01DX009 (ip), vehicle: water
[4] = dose: 100.0 mg/kg/injection, schedule: Q01DX009 (ip), vehicle: water
[5] = dose: 100.0 mg/kg/injection, schedule: Q01DX009 (ip), vehicle: saline with Tween-80
[6] = dose: 200.0 mg/kg/injection, schedule: Q01DX009 (ip), vehicle: saline with Tween-80
[7] = dose: 400.0 mg/kg/injection, schedule: Q01DX009 (ip), vehicle: saline with Tween-80
[8] = dose: 12.5 mg/kg/injection, schedule: Q01DX009 (ip), vehicle: saline with Tween-80
[9] = dose: 25.0 mg/kg/injection, schedule: Q01DX009 (ip), vehicle: saline with Tween-80
[10] = dose: 50.0 mg/kg/injection, schedule: Q01DX009 (ip), vehicle: saline with Tween-80

Measured: T/C

CN1CCC(C=C2c3ccccc3CCc3ccccc32)C1 (stereo not drawn)
inactive: dose: 1.56 mg/kg/injection, schedule: Q01DX009 (ip), vehicle: saline 102 % of control | dose: 3.12 mg/kg/injection, schedule: Q01DX009 (ip), vehicle: saline 100 % of control | dose: 25.0 mg/kg/injection, schedule: Q01DX009 (ip), vehicle: saline 102 % of control

O=C(O)c1nnc(C(=O)O)nn1
inactive: [1] 101 % of control | [2] 96 % of control | [3] 106 % of control | [4] 100 % of control

Cc1c(Cl)cccc1NC(=O)c1cccc([N+](=O)[O-])c1
inactive: dose: 75.0 mg/kg/injection, schedule: Q01DX009 (ip), vehicle: Klucel (hydroxypropylcellulose) (HPC) 95 % of control | dose: 150.0 mg/kg/injection, schedule: Q01DX009 (ip), vehicle: Klucel (hydroxypropylcellulose) (HPC) 87 % of control | dose: 300.0 mg/kg/injection, schedule: Q01DX009 (ip), vehicle: Klucel (hydroxypropylcellulose) (HPC) 91 % of control

NC(=O)NC1CCCCCC1
inactive: [5] 108 % of control | [6] 104 % of control | [7] 95 % of control

Nc1cccc(NC=O)c1
inactive: [8] 102 % of control | [9] 97 % of control | [10] 97 % of control

CC(=O)[C@@]1(O)CC[C@H]2[C@@H]3C[C@H](C)C4=CC(=O)C=C[C@]4(C)[C@@]3(F)[C@@H](O)C[C@@]21C
inactive: dose: 25.0 mg/kg/injection, schedule: Q01DX009 (sc), vehicle: steriod suspending solution 102 % of control | dose: 50.0 mg/kg/injection, schedule: Q01DX009 (sc), vehicle: steriod suspending solution 107 % of control

CCCCCCC#CC(=O)OC
inactive: [8] 110 % of control | [9] 93 % of control | [10] 97 % of control and 100 % of control

CC(=O)C(=O)C1=C2CCCN2CCc2cc3c(cc21)OCO3
inactive: [1] 93 % of control | [2] 98 % of control | [3] 117 % of control | [4] 89 % of control

Nc1ccc(OS(=O)(=O)c2ccccc2)cc1
inactive: [10] 97 % of control | [5] 100 % of control | [6] 101 % of control | [7] 90 % of control

CCCCCCCCCCCCNC(=O)Nc1cccc(C)c1C
inactive: dose: 100.0 mg/kg/injection, schedule: Q01DX009 (ip), vehicle: Klucel (hydroxypropylcellulose) (HPC) 100 % of control | dose: 200.0 mg/kg/injection, schedule: Q01DX009 (ip), vehicle: Klucel (hydroxypropylcellulose) (HPC) 100 % of control | dose: 400.0 mg/kg/injection, schedule: Q01DX009 (ip), vehicle: Klucel (hydroxypropylcellulose) (HPC) 96 % of control

Cc1ccc(NC(=O)Nc2ccc(C)c(NC(=O)Nc3ccc(C)c(Cl)c3)c2)cc1Cl
inactive: dose: 6.25 mg/kg/injection, schedule: Q01DX009 (ip), vehicle: saline with Tween-80 99 % of control | [8] 90 % of control | [9] 99 % of control

CC(=O)Oc1cc(-c2c(C)cc(C)cc2C)c(OC(C)=O)cc1C
inactive: dose: 100.0 mg/kg/injection, schedule: Q04DX003 (ip), vehicle: Klucel (hydroxypropylcellulose) (HPC) 93 % of control | dose: 200.0 mg/kg/injection, schedule: Q04DX003 (ip), vehicle: Klucel (hydroxypropylcellulose) (HPC) 91 % of control | dose: 400.0 mg/kg/injection, schedule: Q04DX003 (ip), vehicle: Klucel (hydroxypropylcellulose) (HPC) 97 % of control
